Consider 6 compounds from patent publication US10526311B2 (ASTEX THERAPEUTICS LIMITED, priority 2015, dated 2020).

Experiment [1] has as its system SN40R2. In words: Protocol B: SN40R2 CellTiter-Glo cell viability. To be noted: 72 h.
Method: Protocol B: SJSA-1 and SN40R2 Assays
(§1) The CellTiter-Glo® Luminescent Cell Viability Assay is a homogeneous method to determine the number of viable cells in culture based on quantitation of the ATP present, which signals the presence of metabolically active cells. […] 100 μl of CTG reagent (Promega #G7573) was added to all wells and luminescence was measured on the topcount. The EC50 values were determined from a sigmoidal 4 parameter curve fit using XLfit in conjunction with Activity Base (IDBS; Guildford, Surrey, UK).
The subject of experiment [2] is SJSA-1 (MDM2 amplified, p53 wild-type osteosarcoma). In words: Protocol A: SJSA-1 growth inhibition (SRB). To be noted: Homo sapiens, SJSA-1, 72 h.
Method: Protocol A: SJSA-1 and SN40R2 Assays
(§2) Following incubation with the SRB dye at room temperature for 30 min, the plates were washed with 1% acetic acid and left to dry. […] The GI50 was calculated by non-linear regression analysis of the data using Prism v4.0 statistical software.
The test system of experiment [3] is SN40R2 (MDM2 amplified, p53 mutated osteosarcoma). In words: Protocol A: SN40R2 growth inhibition (SRB). The settings on record: 72 h.
Method: Protocol A: SJSA-1 and SN40R2 Assays
as §2
The subject of experiment [4] is SJSA-1. In words: Protocol B: SJSA-1 CellTiter-Glo cell viability. A general note: ATP-based viability assays read luminescence as a measure of living cells.
Method: Protocol B: SJSA-1 and SN40R2 Assays
as §1
For experiment [5], the target named is MDM2-p53 interaction (in vitro translated MDM2, biotinylated IP3 peptide) (Homo sapiens, UniProt Q00987). Description: MDM2-p53 interaction 96-well plate binding assay (ELISA). The settings on record: @ 0.0010 μM; read-out: MDM2 % @ concentration.
[6] abbreviates: read-out: SN40R2 IC50 (Protocol B).
Where [7] appears, read: Homo sapiens, SJSA-1, 72 h, read-out: SJSA1 IC50 (Protocol B), SJSA-1 cells, CellTiter-Glo, 72 hrs.
Setting [8] is: read-out: SN40R2 IC50 (Protocol B), SN40R2 cells, CellTiter-Glo, 72 hrs.

Molecules are shown by their SMILES. pIC50: −log10 of the molar value. Where two headings read alike, the source gives them in different places.

MDM2-p53 interaction (in vitro translated MDM2, biotinylated IP3 peptide), sequence (Q00987 whole entry): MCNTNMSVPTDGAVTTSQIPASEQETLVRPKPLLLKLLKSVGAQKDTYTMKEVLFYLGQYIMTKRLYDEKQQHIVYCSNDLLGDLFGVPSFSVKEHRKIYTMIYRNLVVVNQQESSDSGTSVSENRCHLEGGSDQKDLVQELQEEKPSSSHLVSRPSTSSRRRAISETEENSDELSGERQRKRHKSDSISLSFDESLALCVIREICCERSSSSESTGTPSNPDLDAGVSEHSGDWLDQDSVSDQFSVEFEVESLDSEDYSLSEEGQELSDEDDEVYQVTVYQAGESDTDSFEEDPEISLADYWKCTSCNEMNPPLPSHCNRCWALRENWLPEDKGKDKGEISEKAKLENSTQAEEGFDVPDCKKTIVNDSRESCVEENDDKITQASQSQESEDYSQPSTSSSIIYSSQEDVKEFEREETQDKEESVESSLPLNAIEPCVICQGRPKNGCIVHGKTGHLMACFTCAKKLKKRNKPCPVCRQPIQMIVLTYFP

Usually IC50 stands for the point on the concentration scale where inhibition reaches its midpoint. Take `CCC(O)(c1cc(F)c2c(c1)C(=O)N(Cc1ncc(Cl)cn1)[C@@]2(O[C@H]1CCOC1)c1ccc(Cl)cc1)C1(F)CCNCC1` (single isomer, unassigned) [Example 541]: the IC50 came to 10 µM in experiment [1] (read-out: SN40R2 IC50 (μM) (Protocol B)); 0.19 µM in experiment [2] (read-out: SJSA-1 IC50 (μM) (Protocol A), SJSA-1, Protocol A (SRB), 72 hrs); 13 µM in experiment [3] (read-out: SN40R2 IC50 (μM) (Protocol A)).
As a reminder, the pIC50 is −log10 of the IC50, conventionally taken in molar units. Regarding `CC(=O)N1CCC(C(C)(O)c2cc(F)c3c(c2)C(=O)N(Cc2ccc(Cl)cn2)[C@@]3(OCC2(C#N)CC2)c2ccc(Cl)cc2)CC1` (single isomer, unassigned) [Example 301], the pIC50 in experiment [1] (setting [6]) was 4.92; in experiment [4] (setting [7]), 7.44; in experiment [2] (read-out: SJSA-1 IC50 (Protocol A), SJSA-1 cells, SRB, 72 hrs) it was 7.15; in experiment [3] (read-out: SN40R2 IC50 (Protocol A)), 4.55. The inhibition at 0.001 µM in experiment [5] amounted to 75%.
For `CO[C@]1(c2ccc(Cl)cc2)c2c(F)cc(C(C)(O)c3cn(C)c(C)n3)cc2C(=O)N1Cc1ccc(Cl)cn1` (single isomer, unassigned) [Example 162], the pIC50 was 4.89 in experiment [1] (setting [8]) and 6.66 in experiment [4] (read-out: SJSA1 IC50 (Protocol B), SJSA-1 cells, CellTiter-Glo, 72 hrs).
Turning to `CO[C@]1(c2ccc(Cl)cc2)c2c(F)cc(C(C)(O)C3CN(C)C3)cc2C(=O)N1Cc1ccc(Cl)cn1` (single isomer, unassigned) [Example 307], the pIC50 in experiment [1] (setting [8]) is 4.96; in experiment [4] (setting [7]), 5.72.
The like results for `CO[C@]1(c2ccc(Cl)cc2)c2c(F)cc(C(C)(O)C3CCN(C(=O)CN(C)C)CC3)cc2C(=O)N1Cc1ccc(Cl)cn1` (stereo partly drawn) [Example 299, (3R)-3-(4-chlorophenyl)-2-[(5-chloropyridin-2-yl)methyl]-6-(1-{1-[2-(dimethylamino)acetyl]piperidin-4-yl}-1-hydroxyethyl)-4-fluoro-3-methoxy-2,3-dihydro-1H-isoindol-1-one] were, in that order, 5.10 and 5.70.
`CC(O)(c1cc(F)c2c(c1)C(=O)N(Cc1ccc(Cl)cn1)[C@@]2(OCC1(C#N)CC1)c1ccc(Cl)cc1)C1CCN(CCO)CC1` (single isomer, unassigned) [Example 420]: the figures for the pIC50 in experiment [1] (setting [6]) and in experiment [4] (setting [7]) were 5.36 and 6.06, respectively.
